Test system: ruminal bacterial urease
Experiment: urease activity
Assay type: biochemical

## C=CCS[S+]([O-])CC=C (stereo not shown) [allicin]
  IC50: 126.8 ± 1.2 µM

Reference: paper PMC12083136 (Microbiome, 2025)
